Test results taken from patent US6432681B1, “Compositions for treating Escherichia coli urinary tract infections” (The Regents of the University of Washington, priority 1992, dated 2002).

Assays:
[1] = system: Escherichia coli R45; experiment: Bacterial overlay assay: binding of 35S-labelled E. coli R45 to glycolipids separated on HPTLC; details: for binding of E. coli R45 to glycolipid standards: GSL standards separated on HPTLC plates; for reaction of E. coli R45 with SGG and DSGG standards (FIG. 1A): standards run beside vaginal epithelial cell gangliosides, autoradiogram
Protocol: E. coli R45 was isolated from a person with cystitis which had the pap family genotype, expressing both the P and F adhesins (Stapleton, A. et al., J. Infect Dis., 163:773-779, 1989). Organisms were kept frozen in 50% glycerol/50% Luria broth (Maniatis, T. et al., Molecular Cloning: A Laboratory Manual, 1982) at −70° C. until the night before use, when they were streaked onto Luria agar plates (Maniatis, T. et al., Molecular Cloning: A Laboratory Manual, 1982) to promote fimbrial expression and grown overnight at 37° C. On the day of use, bacteria were scraped from the plate, resuspended in M9 medium (Maniatis, T. et al., Molecular Cloning: A Laboratory Manual, 1982) without amino acids, and shaken at 37° C. for 40 minutes to deplete cellular methionine stores. ^35S-methionine (Trans^35S-label, 1137 Ci/mmol, ICN Biochemicals, Irvine, California) was then added at 200 μCi per 10^10 organisms. The cells were shaken for one hour, washed three times in PBS and resuspended in PBS (pH 7.3), and counted in a scintillation counter to give a final activity of approximately 0.01 to 0.02 cpm/organism.
(§1) Glycolipids (10 to 40 μg/lane) were chromatographed on glass HPTLC plates (Whatman) in CMW (50:40:10 by volume) with 0.05% CaCl2 with one plate run in parallel for orcinol staining. Plates were dried, dipped for 1 minute in diethyl ether containing 0.5% polyisobutylmethacrylate, dried, and preincubated in 1% bovine serum albumin (BSA)/PBS for one hour, then washed three times in PBS. Radiolabelled bacteria were overlaid (10^8 cpm total per plate) and the plates were gently rocked for one hour, washed four times in PBS and subjected to autoradiography.
The binding of metabolically radiolabelled E. coli strain R45 to glycolipid standards separated on HPTLC plates was determined using a broad panel of GSLs with varying carbohydrate moieties, as shown in Table 2.
Subsequent experiments were conducted to identify the unique E. coli-binding GSL band detected in nonsecretors' vaginal epithelial cells. Total upper neutral GSLs and total upper gangliosides were extracted from vaginal epithelial cells pooled in equal quantities from 5 nonsecretors and 9 secretors and reacted with radiolabelled E. coli R45.
Lane 1 contains ceramide trihexoasyl and globoside standards; Lane 2 contains total lower phase GSLs from the nonsecretors; Lane 3 contains total lower phase GSLs from the secretors; Lane 4 contains the Forssman antigen standard; Lanes 5 and 6 contain total upper neutral GSLs from nonsecretors and secretors, respectively; Lanes 7 and 10 contain gal-globoside, sialosyl gal-globoside, and disialosyl gal-globoside standards; Lanes 8 and 9 contain total upper phase gangliosides from nonsecretors and secretors, respectively.

[2] = system: MAb ID4 (directed against SGG); experiment: Radioimmunoassay of GSLs immobilized in microtiter wells with MAb ID4; assay type: binding; details: standards from human pancreas, bovine brain (GD1a), human placenta (disialosyl I)
Protocol: Radioimmunoassays of GSLs immobilized in microtiter wells were performed according to the method of Karlsson (Karlsson, K.-A. et al., Methods Enzymol., 138:220-232, 1987).
The SGG and DSGG bands from the nonsecretors' vaginal epithelial cell extracts were then reacted with ID4 in a radioimmunoassay, shown in FIG. 3.
In FIG. 3, the dotted line indicates sialosyl gal-globoside (SGG) standard from human pancreas; the solid line indicates the band co-migrating with SGG eluted from TLC of nonsecretors' extracted vaginal epithelial cells; the dashed line indicates eluted band co-migrating with DSGG from nonsecretors and the following GSL standards: gal-globoside and DSGG from human pancreas, GD1a from bovine brain, and disialosyl I from human placenta.

[3] = system: E. coli isolates R45, IA2, JJ122, pDC1 and pJFK102; experiment: Bacterial overlay assay: binding of five 35S-labelled E. coli UTI isolates to serially diluted globo-series GSLs, radioactivity counted; parameters: species or system Escherichia coli; details: all five isolates; GSL serially diluted from 300 ng to 18.25 ng on HPTLC
Protocol: as §1
Five isolates of E. coli were isolated from patients with UTI, R45 (wild-type cystitis isolate expressing class II pap adhesin), IA2 (wild-type isolate expressing class II pap adhesin), JJ122 (expresses class I pap adhesin), pDC1 (a subclone of IA2, expresses class II pap adhesin) and pJFK102 (expresses class III pap adhesin). The five strains were labelled metabolically with ^35S and exposed to various glycosphingolipids (GSL) separated by HPTLC in the bacterial overlay assay described hereinabove. The amount of radioactivity in the area of each GSL was counted. Controls included HB101.
The GSL's tested were CTH (globotriaosylceramide, isolated from human red blood cells), globoside (also isolated from human erythrocytes), SGG (isolated from vaginal epithelial cells or human kidney), CMH (ceramide monohexoside isolated from adenocarcinoma of colon, negative control) and DSGG (isolated from the same sources as SGG). The GSL's were serially diluted beginning with 300 ng and ending at 18.25 ng.

Substance | binding of E. coli R45 to glycolipid standards [1] | reaction of antibody ID4 with GSL standards (FIG. 3) [2] | level of binding of the E. coli isolates to the GSL [3] | reaction of E. coli R45 with SGG and DSGG standards (FIG. 1A) [1]
(Fucα1-2)Galβ1-3 GalNAcβ1-3 Galα1-4 Galβ1-4 Glcβ1-1cer [Globo H] | bound |  |  | 
GD1a |  | did not bind |  | 
GalNAcα1-3 (Fucα1-2)Galβ1-3 GalNacβ1-3 Galα1-4 Galβ1-4 Glcβ1-1cer [Globo A] | bound |  |  | 
GalNAcα1-3 Galβ1-3 GalNAcβ1-3 Galα1-4 Galβ1-4 Glcβ1-1cer [Forssman] | bound |  |  | 
GalNAcβ1-3 Galα1-4 Galβ1-4 Glcβ1-1cer [Globoside] | bound |  | lower than to DSGG | 
Galα1-4 Galβ1-4 Glcβ1-1cer [CTH] |  |  | lower than to DSGG | 
Galβ1-3 GalNAcβ1-3 Galα1-4 Galβ1-4 Glcβ1-1cer [Gal-globoside] | bound | did not bind |  | 
NeuAcα2-3 (NeuAcα2-6)Galβ1-3 GalNAcβ1-3 Galα1-4 Galβ1-4 Glcβ1-1cer [DSGG] |  | did not bind |  | reacted
NeuAcα2-3 Galβ1-3 GalNAcβ1-3 Galα1-4 Galβ1-4 Glcβ1-1ce [SGG] |  | reacted | highest binding | reacted
